Assay results: patent US20090149420A1, “NOVEL COMPOSITIONS AND USE THEREOF FOR THE TREATMENT, CO-TREATMENT OR PREVENTION OF INFLAMMATORY DISORDERS” (priority 2007, published 2009)

What was measured:
Type in all cases: cell-based
[1] = tested on: murine macrophage cell line, RAW264.7; test: Inhibition of nitric oxide synthesis in LPS-stimulated RAW264.7 macrophages (Griess reaction); details: single substance
Protocol: The anti-inflammatory effect of a mixture of MA/HO (1:3 w/w) in combination with chondroitin sulfate was determined in cellular assays by measuring the inhibition of the synthesis of nitric oxide. Nitric oxide (NO) is a hallmark of inflammation in various chronic inflammatory diseases including various forms of arthritis, gastro-intestinal diseases and metabolic syndrome X.
The effects on the inflammatory response were tested in cellular assays using a murine macrophage cell line, RAW264.7. The cells were purchased from ATCC (Manassas, Va., USA) and cultured in DMEM containing streptomycin/penicillin, non-essential amino acids and 10% fetal calf serum (FCS). In order to test a large range of concentration of a mixture of MA and HO (1:3) as well as mixtures thereof, cells (˜50,000/well) were seeded into flat-bottomed microtiter plates and cultured for one day. […] Concentrations of nitrite which was rapidly formed from nitric oxide released by cells were determined by the Griess reaction using sodium nitrite as standard. Briefly, 50 μl of supernatant was mixed with Griess reagent 1 (25 μL) and Griess reagent 2 (25 μL), centrifuged and the optical density at 540 nm determined. […] IC50 values for LPS-stimulated cells were calculated using a […] least-square fitting equation [y=A+((B−A)/(1+((C−x)̂D))] for best-fit curves (Excel fit software program). […]

Aggrecan = Aggrecan gene expression (mRNA, RT-PCR) in normal human chondrocytes; details: 500 mg/L; stim., 4 hrs; control set at 100%
Protocol: (§1) The effect of a MA/HO (1:3 w/w) mixture in combination with chondroitin was tested on the expression of human aggrecan, collage I, collagen II, or chondrocyte transcription factors (SOX-6, -9) in vitro in normal human chondrocytes (derived from knee) (CC-2550; Cambrex, respectively). A control experiment without the compounds was done concomitantly to compare the expression of these genes (percentage expression of gene in controls was set to 100%). Normal human chondrocytes were cultured for 4 hours with MA/HO (1:3 w/w) (at 12.5 μmol/L), chondroitin (at 500 mg/L) as well as with both. The level of mRNA was determined by RT-PCR (Richard et al. Mol. Nutr. Food Res. 49, 431-442, 2005) and expressed relative to the level observed in cells cultured without the substances. The given values indicate the level of gene expression (in % of unstimulated cells [set at 100%] for anabolic and anti-catabolic genes; in % of IL1β-treated cells [set at 100%], for catabolic genes).

ADAMTS-5 = ADAMTS-5 gene expression (mRNA, RT-PCR) in normal human chondrocytes; details: 500 mg/L; stim, 4 hrs; % of IL1β-treated cells set at 100%
Protocol: as §1

SOX-9 = SOX-9 gene expression (mRNA, RT-PCR) in normal human chondrocytes; details: 500 mg/L; % of unstimulated cells set at 100%
Protocol: as §1

TIMP-1 = TIMP-1 gene expression (mRNA, RT-PCR) in normal human chondrocytes; details: 500 mg/L; unstim., 4 d; % of unstimulated cells set at 100%
Protocol: as §1, with “Normal human chondrocytes were cultured for 4 hours with MA/HO (1:3 w/w) (at 12.5 μmol/L), chondroitin (at 500 mg/L) as well as with both.” left out

MMP-2 = MMP-2 gene expression (mRNA, RT-PCR) in normal human chondrocytes; details: 500 mg/L; 4 d; % of IL1β-treated cells set at 100%
Protocol: as §1, with “Normal human chondrocytes were cultured for 4 hours with MA/HO (1:3 w/w) (at 12.5 μmol/L), chondroitin (at 500 mg/L) as well as with both.” left out

chondroitin sulfate
IC50 Nitric Oxide ([1]; RAW264.7, LPS 1 μg/ml, 24 hours): >50 µg/mL | anti-inflammatory activity (inhibition of nitric oxide), in words ([1]; RAW264.7, LPS-stimulated): marginal anti-inflammatory | Aggrecan gene expression level (Aggrecan): 62% | ADAMTS-5 gene expression level (ADAMTS-5): 107% | SOX-9 gene expression level (SOX-9): 147% | TIMP-1 gene expression level (TIMP-1): 106% | MMP-2 gene expression level (MMP-2): 93%
